According to US6166290A, “Glutathione-S-conjugate transport in plants” (The Trustees of the University of Pennsylvania, priority 1997, dated 2000):

Assays:
[1] = molecular target: T1, YCF1 (vacuolar membrane vesicles purified from DTY165 cells) (Saccharomyces cerevisiae, UniProt P39109); assay: [3H]DNP-GS uptake by vacuolar membrane vesicles purified from DTY165 cells; format: biochemical
T1 construct: endogenous in cells; host or cells: S. cerevisiae DTY165 (wild type YCF1), vacuolar membrane vesicles
How it was run: (§1)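 ATP-dependent [3H]DNP-GS (66.2 μM) transport measured by filtration and scintillation counting of Ficoll-purified yeast vacuolar vesicles (DTY165 wild type; DTY167 ycf1Δ), 1–60 min at 25 °C in sorbitol/Tris-Mes pH 8.0 with 3 mM ATP, 3 mM MgSO4 and gramicidin-D. Nonenergized uptake without ATP/Mg2+.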

[2] = system: vacuolar membrane vesicles purified from DTY167 cells (ycf1Δ mutant); format: biochemical, Saccharomyces cerevisiae; settings: 5 μM gramicidin D, GSH, GSSG 1 mM, GS-conjugates 100 μM
How it was run: as §1

[3] = molecular target: T2, AtMRP1 (Arabidopsis thaliana, UniProt Q9C8G9); assay: AtMRP1-dependent uptake by membrane vesicles from pYES3-AtMRP1-transformed DTY168 cells; format: biochemical; settings: MgATP-dependent, uncoupler-insensitive
T2 construct: S. cerevisiae DTY168 (ycf1 null) vacuolar-enriched membrane vesicles
Method: S. cerevisiae strain DTY168 (MATα his6, leu2-3, -112, ura3-52 ycf1::hisG) was transformed with pYES3-AtMRP1 or empty vector lacking the AtMRP1 insert (pYES3) by the LiOAc/PEG method (Giest et al., 1991, Yeast 7:253-263) and selected for uracil prototrophy by plating on AHC medium containing tryptophan (Kim et al., 1994, supra).
For the preparation of membrane vesicles, 15 ml volumes of stationary phase cultures of the transformants were diluted into 1 L of fresh AHC medium and grown to an OD600 nm of about 1.2. Membrane vesicles were purified as described herein and in Kim et al. (1995, supra).
[…] μl reaction volumes containing 3 mM ATP, 3 mM MgSO4, 5 μM gramicidin-D, 10 mM creatine phosphate, 16 units/ml creatine kinase, 50 mM KCl, 1 mg/ml BSA, 400 mM sorbitol, 25 mM Tris-Mes ([…]).
(§2) Cells were grown and vacuolar membrane-enriched vesicles were prepared as described (Kim et al., 1995, J Biol. Chem. 270:2630-2635-). […] Uptake was terminated by the addition of 1 ml ice-cold wash medium (400 mM sorbitol/3 mM Tris-Mes, pH 8.0) and vacuum filtration of the suspension through prewetted Millipore HA cellulose nitrate filters (pore size 0.45 μm). The filters were rinsed twice with wash medium, and the retained radioactivity was determined by liquid scintillation counting. Nonenergized uptake was estimated by the same procedure except that ATP was omitted from the uptake medium.

[4] = molecular target: T3, AtMRP2 (Arabidopsis thaliana, UniProt Q42093); assay: AtMRP2-dependent uptake by membrane vesicles from pYES3-AtMRP2-transformed DTY168 cells; format: biochemical; settings: MgATP-dependent, uncoupler-insensitive
T3 construct: S. cerevisiae DTY168 (ycf1 null) vacuolar-enriched membrane vesicles
Method: as §2
Membranes from DTY168/pYES3-AtMRP2 cells were incubated for 10 minutes in standard uptake medium containing 61.3 μM [^3 H]DNP-GS after which time 200 mM glucose and 50 units/ml hexokinase (Type F-300 from baker's yeast) were added. […] Control samples were treated identically except that no additions were made after the initial 10 minute incubation period.

[5] = system: barley vacuoles; settings: cited from earlier work
[6] = molecular target: T1, YCF1 (vacuolar membrane vesicles purified from DTY165 cells); assay: biochemical; format: biochemical
How it was run: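 Vacuolar vesicles from wild-type (DTY165) or ycf1Δ (DTY167) yeast, washed free of DTT/EGTA into glycerol/Tris-Mes pH 8.0. MgATP-energized, uncoupler-insensitive uptake of 109Cd2+, GSH or purified radiolabeled Cd·GSn complexes measured at 25°C. Medium: 3 mM ATP/MgSO4, ATP-regenerating system, 5 μM gramicidin-D, Tris-Mes pH 8.0; washes contained 100 μM CdSO4.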

[7] = system: vacuolar membrane vesicles purified from DTY167 cells (ycf1Δ mutant); format: biochemical, Saccharomyces cerevisiae
Method: In experiments involving cadmium transport, dithiothreitol and EGTA were removed from the suspension medium to prevent the attenuation of YCF1-dependent Cd^2+ transport otherwise exerted by these compounds. Vesiculated vacuolar membranes were subjected to three cycles of 50-fold dilution into simplified suspension medium (1.1 M glycerol, 5 mM Tris-Mes, pH 8.0), centrifugation at 100,000× g for 35 minutes and resuspension in the same medium before use.
Singly radiolabeled ^109 Cd.GSn and doubly radio-labeled ^109 Cd[^3 H].GS^n complexes were prepared by sequential gel-filtrationand anion-exchange chromatography of the reaction products generated by incubating 20 mM ^109 CdSO4 (78.4 mCi/mmol) with 40 mM GSH or 40 mM [^3 H]GSH (240 mCi/mmol) in 15 ml 10 mM phosphate buffer (pH 8.0) containing 150 mM KNO3 at 45° C. for 24 hours. For gel-filtration, 2 ml aliquots of the reaction mixture were applied to a column (40×1.5 cm ID) packed with water-equilibrated Sephadex G-1 5, eluted with deionized water and ^109 Cd and/or ^3 H in the fractions was measured by liquid scintillation counting. The fractions encompassed by each of the two ^109 Cd.GSn peaks identified were pooled, lyophilized and redissolved in 4 ml of loading buffer (5 mM Tris-Mes, pH 8.0). For anion-exchange chromatography, 0.5 ml aliquots of the resuspended lyophilizates from gel-filtration chromatography were applied to a Mono-Q HR5/5 column (Pharmacia) equilibrated with the same buffer. Elution was with a linear gradient of NaCl (0.5 ml/minute; 0-500 mM) dissolved in loading buffer. The individual fractions corresponding to the major peaks of ^109 Cd obtained from the Mono-Q column (one each for the peaks resolved by gel-filtration chromatography) were pooled, lyophilized and resuspended in 4 ml deionized water after liquid scintillation counting.
MgATP-energized, uncoupler-insensitive ^109 Cd^2+ uptake by vacuolar membrane vesicles was measured at 25° C. in 200 μl reaction volumes containing 3 mM ATP, 3 mM MgSO4, 5 μM gramicidin-D, 10 mM creatine phosphate, 16 units/ml creatine kinase, 50 mM KCl, 400 mM sorbitol, 25 mM Tris-Mes (pH 8.0) and the indicated concentrations of ^109 CdSO4, GSH or ^109 Cd- and/or ^3 H-labeled purified Cd.GSn complexes as described herein except that the wash media contained 100 μM CdSO4 in addition to sorbitol (400 mM) and Tris-Mes (3 mM, pH 8.0).

[8] = system: YCF1-specific mRNA; settings: 24 hour pretreatment; CdSO4 200 μM, CDNB 150 μM
[9] = 80 μM 109CdSO4, compound 1 mM, 5 μM gramicidin-D
[10] = 3 mM MgATP, 80 μM 109CdSO4, compound 1 mM, 5 μM gramicidin-D

T1 sequence (P39109 whole entry): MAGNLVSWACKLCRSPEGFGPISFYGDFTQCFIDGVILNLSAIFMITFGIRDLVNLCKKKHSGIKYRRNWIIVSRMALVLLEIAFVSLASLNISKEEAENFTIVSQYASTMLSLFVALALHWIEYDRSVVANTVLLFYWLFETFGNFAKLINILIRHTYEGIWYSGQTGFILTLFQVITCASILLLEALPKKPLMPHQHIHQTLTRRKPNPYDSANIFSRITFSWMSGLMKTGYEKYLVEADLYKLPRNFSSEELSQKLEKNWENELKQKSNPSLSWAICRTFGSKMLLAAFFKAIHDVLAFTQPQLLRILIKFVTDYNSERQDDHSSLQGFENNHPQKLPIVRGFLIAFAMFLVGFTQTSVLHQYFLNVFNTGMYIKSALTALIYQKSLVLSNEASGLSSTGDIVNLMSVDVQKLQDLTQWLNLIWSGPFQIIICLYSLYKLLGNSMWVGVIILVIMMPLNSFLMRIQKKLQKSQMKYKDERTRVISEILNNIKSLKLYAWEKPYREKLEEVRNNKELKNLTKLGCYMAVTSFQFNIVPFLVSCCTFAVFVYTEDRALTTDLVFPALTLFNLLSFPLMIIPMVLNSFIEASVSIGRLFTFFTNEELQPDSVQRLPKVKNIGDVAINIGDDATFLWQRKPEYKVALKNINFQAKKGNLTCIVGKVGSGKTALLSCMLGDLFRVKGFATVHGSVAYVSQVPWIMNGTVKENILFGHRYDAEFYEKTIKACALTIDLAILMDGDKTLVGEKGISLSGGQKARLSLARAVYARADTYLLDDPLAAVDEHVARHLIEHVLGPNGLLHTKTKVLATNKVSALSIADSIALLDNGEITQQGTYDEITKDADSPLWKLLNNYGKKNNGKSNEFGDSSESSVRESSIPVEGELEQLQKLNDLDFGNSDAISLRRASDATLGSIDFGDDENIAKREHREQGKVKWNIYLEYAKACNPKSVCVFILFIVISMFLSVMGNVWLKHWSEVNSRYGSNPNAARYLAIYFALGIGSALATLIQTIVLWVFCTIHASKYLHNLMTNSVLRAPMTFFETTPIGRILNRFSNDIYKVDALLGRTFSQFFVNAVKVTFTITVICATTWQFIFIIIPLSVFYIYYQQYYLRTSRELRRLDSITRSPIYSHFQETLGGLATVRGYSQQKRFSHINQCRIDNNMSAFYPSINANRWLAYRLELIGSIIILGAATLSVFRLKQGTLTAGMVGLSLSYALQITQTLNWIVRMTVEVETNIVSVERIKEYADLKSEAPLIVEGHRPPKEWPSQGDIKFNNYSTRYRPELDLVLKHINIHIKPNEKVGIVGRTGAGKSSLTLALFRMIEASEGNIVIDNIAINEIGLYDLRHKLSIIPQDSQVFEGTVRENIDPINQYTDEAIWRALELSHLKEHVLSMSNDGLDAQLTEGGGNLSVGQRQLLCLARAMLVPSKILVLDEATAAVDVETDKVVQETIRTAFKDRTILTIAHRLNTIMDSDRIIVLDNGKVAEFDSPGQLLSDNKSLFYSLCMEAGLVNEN
T2 sequence (Q9C8G9 whole entry): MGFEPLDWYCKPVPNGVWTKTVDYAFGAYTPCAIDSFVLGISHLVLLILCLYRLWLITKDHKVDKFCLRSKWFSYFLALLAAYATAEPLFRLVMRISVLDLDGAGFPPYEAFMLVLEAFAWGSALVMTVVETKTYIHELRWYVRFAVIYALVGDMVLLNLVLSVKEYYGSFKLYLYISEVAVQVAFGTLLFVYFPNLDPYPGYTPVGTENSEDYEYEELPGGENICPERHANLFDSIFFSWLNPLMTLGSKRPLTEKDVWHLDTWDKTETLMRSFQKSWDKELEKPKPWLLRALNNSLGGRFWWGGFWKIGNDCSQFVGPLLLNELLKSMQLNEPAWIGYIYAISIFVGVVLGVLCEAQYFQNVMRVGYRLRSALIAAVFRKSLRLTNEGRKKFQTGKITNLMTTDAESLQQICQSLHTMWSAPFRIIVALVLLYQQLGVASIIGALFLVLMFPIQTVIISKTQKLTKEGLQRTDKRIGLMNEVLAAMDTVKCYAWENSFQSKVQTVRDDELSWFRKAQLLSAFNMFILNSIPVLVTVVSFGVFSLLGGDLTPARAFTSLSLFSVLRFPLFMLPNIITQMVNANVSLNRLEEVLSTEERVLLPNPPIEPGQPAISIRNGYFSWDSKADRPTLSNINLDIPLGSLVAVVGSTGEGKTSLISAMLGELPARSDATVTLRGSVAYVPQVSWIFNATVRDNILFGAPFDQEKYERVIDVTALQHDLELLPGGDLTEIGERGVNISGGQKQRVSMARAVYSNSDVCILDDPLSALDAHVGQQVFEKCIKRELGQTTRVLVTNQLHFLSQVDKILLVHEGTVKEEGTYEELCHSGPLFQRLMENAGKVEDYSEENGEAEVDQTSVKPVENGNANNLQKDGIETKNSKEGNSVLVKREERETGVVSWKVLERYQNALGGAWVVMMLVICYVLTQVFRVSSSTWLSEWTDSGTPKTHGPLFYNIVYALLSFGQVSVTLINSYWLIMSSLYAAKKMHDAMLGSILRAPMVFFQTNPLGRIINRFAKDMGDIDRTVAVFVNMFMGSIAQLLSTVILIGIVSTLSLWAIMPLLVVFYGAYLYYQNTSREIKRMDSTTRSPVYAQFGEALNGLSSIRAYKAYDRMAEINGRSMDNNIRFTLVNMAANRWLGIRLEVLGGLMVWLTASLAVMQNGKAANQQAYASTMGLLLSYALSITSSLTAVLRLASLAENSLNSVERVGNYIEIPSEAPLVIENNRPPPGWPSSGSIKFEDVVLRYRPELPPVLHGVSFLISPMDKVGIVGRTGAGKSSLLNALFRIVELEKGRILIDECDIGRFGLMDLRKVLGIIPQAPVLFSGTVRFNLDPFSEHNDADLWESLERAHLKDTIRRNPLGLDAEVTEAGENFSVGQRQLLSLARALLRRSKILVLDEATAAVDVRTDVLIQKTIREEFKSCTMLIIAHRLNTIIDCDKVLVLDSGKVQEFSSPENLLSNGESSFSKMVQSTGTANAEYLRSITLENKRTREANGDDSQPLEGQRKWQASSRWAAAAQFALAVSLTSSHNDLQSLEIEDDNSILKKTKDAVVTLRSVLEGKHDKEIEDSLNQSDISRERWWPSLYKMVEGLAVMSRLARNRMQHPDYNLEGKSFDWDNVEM
T3 sequence (Q42093 whole entry): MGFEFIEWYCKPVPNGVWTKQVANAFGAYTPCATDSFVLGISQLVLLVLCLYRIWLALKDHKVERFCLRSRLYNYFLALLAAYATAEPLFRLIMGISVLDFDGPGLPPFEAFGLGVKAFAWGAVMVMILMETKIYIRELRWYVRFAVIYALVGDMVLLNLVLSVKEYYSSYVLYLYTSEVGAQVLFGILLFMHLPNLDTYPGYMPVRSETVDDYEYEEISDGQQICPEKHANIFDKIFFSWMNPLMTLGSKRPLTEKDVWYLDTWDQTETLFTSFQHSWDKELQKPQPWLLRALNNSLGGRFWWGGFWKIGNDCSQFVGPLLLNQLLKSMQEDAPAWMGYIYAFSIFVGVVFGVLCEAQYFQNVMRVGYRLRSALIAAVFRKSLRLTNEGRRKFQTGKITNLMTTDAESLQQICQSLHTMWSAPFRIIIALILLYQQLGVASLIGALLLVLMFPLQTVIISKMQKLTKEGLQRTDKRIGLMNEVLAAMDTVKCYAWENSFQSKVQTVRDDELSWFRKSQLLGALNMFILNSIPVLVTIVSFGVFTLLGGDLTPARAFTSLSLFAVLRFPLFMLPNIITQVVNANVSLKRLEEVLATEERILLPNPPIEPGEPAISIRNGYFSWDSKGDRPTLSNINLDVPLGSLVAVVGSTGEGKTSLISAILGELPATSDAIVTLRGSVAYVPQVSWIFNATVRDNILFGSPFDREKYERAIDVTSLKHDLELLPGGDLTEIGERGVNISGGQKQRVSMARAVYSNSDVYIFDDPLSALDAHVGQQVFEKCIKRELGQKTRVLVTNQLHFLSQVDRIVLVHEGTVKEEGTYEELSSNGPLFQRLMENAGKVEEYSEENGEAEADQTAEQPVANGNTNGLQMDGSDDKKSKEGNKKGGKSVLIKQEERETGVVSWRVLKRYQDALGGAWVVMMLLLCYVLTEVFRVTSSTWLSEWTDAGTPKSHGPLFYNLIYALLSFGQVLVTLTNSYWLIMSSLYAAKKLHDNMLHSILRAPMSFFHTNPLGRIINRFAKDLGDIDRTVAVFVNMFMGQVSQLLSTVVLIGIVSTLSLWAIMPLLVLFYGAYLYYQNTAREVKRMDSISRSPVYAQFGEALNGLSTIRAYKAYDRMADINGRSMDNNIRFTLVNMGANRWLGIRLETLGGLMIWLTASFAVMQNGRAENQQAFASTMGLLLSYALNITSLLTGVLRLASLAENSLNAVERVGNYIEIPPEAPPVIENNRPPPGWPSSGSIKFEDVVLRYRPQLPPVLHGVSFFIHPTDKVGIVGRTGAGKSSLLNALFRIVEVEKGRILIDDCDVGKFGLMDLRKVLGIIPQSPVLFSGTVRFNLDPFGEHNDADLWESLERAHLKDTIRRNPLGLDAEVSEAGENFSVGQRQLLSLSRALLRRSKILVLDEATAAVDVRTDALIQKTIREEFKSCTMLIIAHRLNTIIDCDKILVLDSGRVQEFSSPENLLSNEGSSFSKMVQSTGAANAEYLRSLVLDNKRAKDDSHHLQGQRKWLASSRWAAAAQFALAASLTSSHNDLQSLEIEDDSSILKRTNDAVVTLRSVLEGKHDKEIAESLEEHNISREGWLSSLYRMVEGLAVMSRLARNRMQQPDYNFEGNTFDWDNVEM

With `CCc1cccc(C)c1N(C(=O)CSC[C@H](NC(=O)CC[C@H](N)C(=O)O)C(=O)NCC(=O)O)C(C)COC` (stereo partly shown) [Metolachlor-GS] the “MgATP-dependent, uncoupler-insensitive DNP-GS uptake plus compound” value ([1]; 5 μM gramicidin D, GSH, GSSG 1 mM, GS-conjugates 100 μM) was 27.6 ± 0.9 nmol/mg/10 minutes, the “MgATP-dependent, uncoupler-insensitive DNP-GS uptake as percentage of control” value ([1]; 5 μM gramicidin D, GSH, GSSG 1 mM, GS-conjugates 100 μM, 10 min) was 57.7% and the inhibition at 100 µM ([1]; 100 μM compound) was roughly 50%. For the same compound, the “MgATP-dependent, uncoupler-insensitive DNP-GS uptake plus compound” value [2] was 4.8 ± 0.7 nmol/mg/10 minutes, the “MgATP-dependent, uncoupler-insensitive DNP-GS uptake as percentage of control” value ([2]; 10 min) was 73.8% and the “Vmax for AtMRP1-dependent uptake” value [3] was 17.5 ± 5.2 nmol/mg/10 min. For the same compound, the “Vmax for AtMRP1-dependent uptake” value ([3]; listed as metolachlor-GS) was 17.5±5.2 nmol/mg/10 min, the “Vmax for AtMRP2-dependent uptake” value [4] was 136.0 ± 28.1 nmol/mg/10 min and the “Vmax for AtMRP2-dependent uptake” value ([4]; listed as metolachlor-GS) was 136.0±28.1 nmol/mg/10 min. The Km estimated previously [5] was 40 to 60 µM.

With `[Cd+2]` [Cd^2+] the “increase of [3H]DNP-GS uptake into vesicles from pretreated cells” value ([1]; 24 hour pretreatment, CdSO4 200 μM, CDNB 150 μM, 66.2 μM DNP-GS) was 1.6 fold, the “109Cd uptake, -MgATP” value [6, 9] was 5.8 ± 2.4 nmol/mg/10 minutes and the “MgATP-dependent, uncoupler-insensitive 109Cd2+ uptake rate” value ([6]; 80 μM Cd2+, 1 mM GSH) was 4.5 nmol/mg/min. The “109Cd uptake, +MgATP” value [6, 10] was 5.6 ± 1.5 nmol/mg/10 minutes, the “increase of 109Cd.GS2 uptake into vesicles from pretreated cells” value ([6]; 24 hour pretreatment, CdSO4 200 μM, CDNB 150 μM, 50 μM Cd.GS2) was 1.4 fold and the “109Cd uptake, -MgATP” value [7, 9] was 4.3 ± 1.3 nmol/mg/10 minutes. For the same compound, the “MgATP-dependent, uncoupler-insensitive 109Cd2+ uptake rate” value ([7]; 80 μM Cd2+, 1 mM GSH) was 0.8 nmol/mg/min, the “109Cd uptake, +MgATP” value [7, 10] was 4.6 ± 2.1 nmol/mg/10 minutes and the “increase of YCF1-specific mRNA level” value [8] was 1.9 fold.
